Measurements as given in ChEMBL document CHEMBL5050844 (2019).

Legend:
Format in all cases: functional, T cell line
[1] = Induction of anti-CD3 antibodies-stimulated human T cell activation at 8 uM assessed fold increase in IL-2 secretion measured by ELISA assay; also: reference of the scale not given here
[2] = Induction of anti-CD3/CD28 antibodies-stimulated human T cell activation at 4 uM assessed fold increase in CD25 expression measured by ELISA assay
[3] = Induction of anti-CD3/CD28 antibodies-stimulated human T cell activation at 1 uM assessed fold increase in IL-2 secretion measured by ELISA assay
[4] = Induction of anti-CD3/CD28 antibodies-stimulated human T cell activation at 0.3 uM assessed fold increase in IL-2 secretion measured by ELISA assay
[5] = Induction of anti-CD3 antibodies-stimulated human T cell activation at 1 uM assessed fold increase in CD25 expression measured by ELISA assay; also: reference of the scale not given here
[6] = Induction of anti-CD3/CD28 antibodies-stimulated human T cell activation at 1 uM assessed fold increase in CD25 expression measured by ELISA assay
[7] = Induction of anti-CD3 antibodies-stimulated human T cell activation at 1 uM assessed fold increase in IL-2 secretion measured by ELISA assay; also: reference of the scale not given here
[8] = Induction of anti-CD3 antibodies-stimulated human T cell activation at 8 uM assessed fold increase in CD25 expression measured by ELISA assay; also: reference of the scale not given here
[9] = Induction of anti-CD3/CD28 antibodies-stimulated human T cell activation at 4 uM assessed fold increase in IL-2 secretion measured by ELISA assay
[10] = Induction of anti-CD3/CD28 antibodies-stimulated human T cell activation at 0.3 uM assessed fold increase in CD25 expression measured by ELISA assay

SMILES: C[C@H](CO)Nc1cc([C@H](C)Cc2nncn2C)cc(N2Cc3c(cccc3C(F)(F)F)C2=O)n1
- fold change (FC) [1]: >=0.201
- fold change (FC) [2]: 1.31
- fold change (FC) [3]: 2.51
- fold change (FC) [4]: 1.01
- fold change (FC) [5]: 0.801
- fold change (FC) [6]: 1.01
- fold change (FC) [7]: 0.051
- fold change (FC) [8]: >=1.001
- fold change (FC) [9]: 5
- fold change (FC) [10]: 1.01

SMILES: C[C@H](Cc1nncn1C)c1cccc(NC(=O)c2cc(C3(O)COC3)cc(C(F)(F)F)n2)c1
- fold change (FC) [1]: 0.101
- fold change (FC) [2]: >=1.76
- fold change (FC) [3]: 1.01
- fold change (FC) [4]: <=1
- fold change (FC) [5]: 0.601
- fold change (FC) [6]: >=1.76
- fold change (FC) [7]: <=0.05
- fold change (FC) [8]: >=1.001
- fold change (FC) [9]: 5
- fold change (FC) [10]: >=1.76

SMILES: C[C@H](Cc1nncn1C)c1cc(NCCO)nc(N2Cc3c(cccc3C(F)(F)F)C2=O)c1
- fold change (FC) [1]: 0.151
- fold change (FC) [2]: 1.01
- fold change (FC) [3]: 1.01
- fold change (FC) [4]: 1.01
- fold change (FC) [5]: 0.601
- fold change (FC) [6]: 1.01
- fold change (FC) [7]: 0.051
- fold change (FC) [8]: >=1.001
- fold change (FC) [9]: 2.51
- fold change (FC) [10]: 1.01

SMILES: Cn1cnnc1[C@@H]1C[C@@H]1c1cccc(NC(=O)c2nc3c(C(F)(F)F)cccc3[nH]2)c1
- fold change (FC) [1]: >=0.201
- fold change (FC) [2]: 1.01
- fold change (FC) [3]: 1.01
- fold change (FC) [4]: 1.01
- fold change (FC) [5]: 0.601
- fold change (FC) [6]: 1.01
- fold change (FC) [7]: 0.101
- fold change (FC) [8]: 0.801
- fold change (FC) [9]: 2.51
- fold change (FC) [10]: 1.01

SMILES: COc1nc(C(=O)Nc2cccc([C@H](C)Sc3nncn3C)c2)cc2ccccc12
- fold change (FC) [1]: 0.051
- fold change (FC) [2]: 1.01
- fold change (FC) [3]: 5
- fold change (FC) [4]: 2.51
- fold change (FC) [5]: <=0.6
- fold change (FC) [6]: 1.01
- fold change (FC) [7]: <=0.05
- fold change (FC) [8]: 0.801
- fold change (FC) [9]: >=7.5
- fold change (FC) [10]: <=1

SMILES: C[C@H](Cc1nncn1C)c1cccc(NC(=O)c2nc3c(C4CC4)cccc3[nH]2)c1
- fold change (FC) [1]: >=0.201
- fold change (FC) [2]: 1.01
- fold change (FC) [3]: 1.01
- fold change (FC) [4]: 1.01
- fold change (FC) [5]: 0.601
- fold change (FC) [6]: 1.01
- fold change (FC) [7]: 0.051
- fold change (FC) [8]: 0.801
- fold change (FC) [9]: 2.51
- fold change (FC) [10]: 1.01

SMILES: CNC(=O)COc1ccc2cnc(C(=O)Nc3cccc([C@H](C)Sc4nncn4C)c3)cc2c1
- fold change (FC) [1]: <=0.05
- fold change (FC) [2]: 1.01
- fold change (FC) [3]: 1.01
- fold change (FC) [4]: <=1
- fold change (FC) [5]: <=0.6
- fold change (FC) [6]: 1.01
- fold change (FC) [7]: <=0.05
- fold change (FC) [8]: 0.801
- fold change (FC) [9]: 1.01
- fold change (FC) [10]: 1.01

SMILES: Cc1c[nH]nc1C[C@H](C)c1cccc(N2Cc3c(cccc3C(F)(F)F)C2=O)c1 (single isomer, unassigned)
- fold change (FC) [1]: 0.151
- fold change (FC) [2]: 1.01
- fold change (FC) [3]: 1.01
- fold change (FC) [4]: 1.01
- fold change (FC) [5]: 0.601
- fold change (FC) [6]: 1.01
- fold change (FC) [7]: 0.101
- fold change (FC) [8]: 0.801
- fold change (FC) [9]: 1.01
- fold change (FC) [10]: 1.01

SMILES: COc1cccc(C(=O)Nc2cccc([C@H](C)Sc3nncn3C)c2)n1
- fold change (FC) [1]: 0.151
- fold change (FC) [2]: 1.31
- fold change (FC) [3]: 1.01
- fold change (FC) [4]: 1.01
- fold change (FC) [5]: <=0.6
- fold change (FC) [6]: <=1
- fold change (FC) [7]: 0.101
- fold change (FC) [8]: 0.601
- fold change (FC) [9]: 2.51
- fold change (FC) [10]: <=1

SMILES: C[C@H](Sc1nncn1C)c1cccc(NC(=O)c2cc(C(C)(C)O)cc(C(F)(F)F)n2)c1
- fold change (FC) [1]: <=0.05
- fold change (FC) [2]: 1.01
- fold change (FC) [3]: <=1
- fold change (FC) [4]: <=1
- fold change (FC) [5]: 0.601
- fold change (FC) [6]: 1.01
- fold change (FC) [7]: <=0.05
- fold change (FC) [8]: >=1.001
- fold change (FC) [9]: 1.01
- fold change (FC) [10]: 1.01

SMILES: C[C@H](Cc1nncn1C)c1cccc(N2Cc3c(ccnc3C3CCC3)C2=O)c1
- fold change (FC) [1]: 0.101
- fold change (FC) [2]: 1.01
- fold change (FC) [3]: 2.51
- fold change (FC) [4]: 1.01
- fold change (FC) [5]: >=1.001
- fold change (FC) [6]: 1.01
- fold change (FC) [7]: 0.051
- fold change (FC) [8]: >=1.001
- fold change (FC) [9]: 5
- fold change (FC) [10]: <=1

SMILES: CCn1cnnc1C[C@@H](C)c1cccc(NC(=O)c2cc(C(=O)N3C[C@@H](O)C[C@H]3C)ccn2)c1
- fold change (FC) [1]: 0.151
- fold change (FC) [2]: 1.01
- fold change (FC) [3]: <=1
- fold change (FC) [4]: <=1
- fold change (FC) [5]: 0.601
- fold change (FC) [6]: 1.01
- fold change (FC) [7]: 0.151
- fold change (FC) [8]: 0.601
- fold change (FC) [9]: 1.01
- fold change (FC) [10]: 1.01

SMILES: C[C@H](Sc1nncn1C)c1ccnc(NC(=O)c2cc3c(C(F)(F)F)cccc3[nH]2)c1
- fold change (FC) [1]: <=0.05
- fold change (FC) [2]: <=1
- fold change (FC) [3]: 1.01
- fold change (FC) [4]: 1.01
- fold change (FC) [5]: <=0.6
- fold change (FC) [6]: <=1
- fold change (FC) [7]: <=0.05
- fold change (FC) [8]: <=0.6
- fold change (FC) [9]: 1.01
- fold change (FC) [10]: <=1

SMILES: C[C@H](Sc1nncn1C)c1ccnc(N2Cc3c(cccc3C(F)(F)F)C2=O)c1
- fold change (FC) [1]: <=0.05
- fold change (FC) [2]: <=1
- fold change (FC) [3]: 2.51
- fold change (FC) [4]: 2.51
- fold change (FC) [5]: <=0.6
- fold change (FC) [6]: <=1
- fold change (FC) [7]: <=0.05
- fold change (FC) [8]: <=0.6
- fold change (FC) [9]: 2.51
- fold change (FC) [10]: <=1

SMILES: C[C@H](Cc1nncn1C)c1ccnc(N2Cc3c(cccc3C(F)(F)F)C2=O)c1
- fold change (FC) [1]: <=0.05
- fold change (FC) [2]: 1.31
- fold change (FC) [3]: <=1
- fold change (FC) [4]: <=1
- fold change (FC) [5]: <=0.6
- fold change (FC) [6]: 1.01
- fold change (FC) [7]: <=0.05
- fold change (FC) [8]: <=0.6
- fold change (FC) [9]: 1.01
- fold change (FC) [10]: 1.01

SMILES: C[C@H](Cc1nncn1C)c1cccc(NC(=O)c2cccc(S(C)(=O)=O)n2)c1
- fold change (FC) [1]: 0.051
- fold change (FC) [2]: >=1.76
- fold change (FC) [3]: 1.01
- fold change (FC) [4]: 1.01
- fold change (FC) [5]: <=0.6
- fold change (FC) [6]: >=1.76
- fold change (FC) [7]: 0.051
- fold change (FC) [8]: <=0.6
- fold change (FC) [9]: 2.51
- fold change (FC) [10]: 1.01

SMILES: C[C@@H](c1cccc(N2Cc3c(cccc3C(F)(F)F)C2=O)c1)[C@H](F)c1nncn1C (racemic)
- fold change (FC) [1]: 0.151
- fold change (FC) [2]: 1.01
- fold change (FC) [3]: 1.01
- fold change (FC) [4]: 1.01
- fold change (FC) [5]: 0.601
- fold change (FC) [6]: 1.01
- fold change (FC) [7]: 0.051
- fold change (FC) [8]: >=1.001
- fold change (FC) [9]: 2.51
- fold change (FC) [10]: 1.01

SMILES: Cn1cnnc1[C@H](F)[C@](C)(F)c1cccc(N2Cc3c(cc(C4CC4)cc3C(F)(F)F)C2=O)c1
- fold change (FC) [1]: 0.101
- fold change (FC) [2]: 1.01
- fold change (FC) [3]: 1.01
- fold change (FC) [4]: <=1
- fold change (FC) [5]: 0.801
- fold change (FC) [6]: 1.01
- fold change (FC) [7]: 0.051
- fold change (FC) [8]: >=1.001
- fold change (FC) [9]: 2.51
- fold change (FC) [10]: 1.01

SMILES: C[C@H](Sc1nncn1C)c1cccc(NC(=O)c2cc(Cl)cc(C(F)(F)F)n2)c1
- fold change (FC) [1]: 0.051
- fold change (FC) [2]: 1.01
- fold change (FC) [3]: 1.01
- fold change (FC) [4]: 1.01
- fold change (FC) [5]: 0.601
- fold change (FC) [6]: 1.01
- fold change (FC) [7]: <=0.05
- fold change (FC) [8]: 0.801
- fold change (FC) [9]: 1.01
- fold change (FC) [10]: 1.01

SMILES: C[C@H](Cc1nncn1C)c1cc(NC2CCOC2)nc(N2Cc3c(cccc3C(F)(F)F)C2=O)c1 (single isomer, unassigned)
- fold change (FC) [1]: 0.151
- fold change (FC) [2]: 1.01
- fold change (FC) [3]: 1.01
- fold change (FC) [4]: 1.01
- fold change (FC) [5]: 0.601
- fold change (FC) [6]: 1.01
- fold change (FC) [7]: 0.051
- fold change (FC) [8]: 0.801
- fold change (FC) [9]: 1.01
- fold change (FC) [10]: <=1

SMILES: C[C@H](Sc1nncn1C)c1cccc(NC(=O)c2cccc(S(C)(=O)=O)n2)c1
- fold change (FC) [1]: <=0.05
- fold change (FC) [2]: 1.01
- fold change (FC) [3]: 1.01
- fold change (FC) [4]: <=1
- fold change (FC) [5]: <=0.6
- fold change (FC) [6]: 1.01
- fold change (FC) [7]: <=0.05
- fold change (FC) [8]: <=0.6
- fold change (FC) [9]: 1.01
- fold change (FC) [10]: 1.01

SMILES: C[C@H](Cc1nncn1C)c1cccc(N2Cc3c(Br)cccc3C2=O)c1
- fold change (FC) [1]: >=0.201
- fold change (FC) [2]: 1.51
- fold change (FC) [3]: 5
- fold change (FC) [4]: 2.51
- fold change (FC) [5]: 0.801
- fold change (FC) [6]: 1.31
- fold change (FC) [7]: >=0.201
- fold change (FC) [8]: 0.801
- fold change (FC) [9]: >=7.5
- fold change (FC) [10]: 1.01
